This experiment has as its system intact L5D0 hornworms. The experiment in a line: Premature head capsule apolysis in intact L5D0 hornworms, fed treated diet. In kind it is in vivo, M. sexta. To be noted: for ED50: L5D0 larvae, oral, read-out: 50% effective dose. The method, then:
Lepidoptera display the onset of a larval molt by slippage of the head capsule down over the mandibles during formation of an underlying pharate head capsule; this morphological marker accompanies epidermal apolysis which ordinarily occurs at or near peak molting hormone titers. Example No. 3 causes a rapid, premature apolysis in newly ecdysed fifth instar day 0 (L5DO) M. sexta larvae. Clear signs of head capsule apolysis are evident 24 hours after the initiation of feeding.
L4D1 means fourth instar, first day after molting. L4 animals 36 hours after ecdysis were ligated, decapitated and next day injected with varying doses of compound in 1 - 2 ul DMSO. They were scored as follows: 0 = normal L4 abdomens with no L5 crochets or spiracle apolysis; 1 = exposed dorsal vessel (response to moderate levels of molting hormone in the presence of low JH levels); 2 = L5 crochets formed but no spiracle apolysis; 3 = L5 crochets formed and mild spiracle apolysis; 4 = strong molting response, both L5 crochets and spiracle cuticle synthesized. These methods are an adaptation of the method of J. W. Truman, L. M. Riddiford, L. Safranek, 39 Dev. Biol 247 (1974). Injection and scoring of L5D3 abdomens (weighing 6.5 - 7.5 g) are also adaptations of previous methods in H. F. Nijhout, 22 J. Insect Physiol. 453 (1976). Mature feeding stage fifth instar animals weighing 8.5 - 9.5 g were ligated and decapitated, and immediately injected with Example No. 3 in 2 - 5 ul DMSO. Animals were held over moistened filter paper at 25 ° C and were scored after three days. Scoring was as follows: 0 = normal undeveloped blue-green L5D3 abdomen; 1 = light dorsal vessel exposure; 2 = dorsal vessel well-exposed with mild cuticular blanching, abdominal contraction; 3 = complete prepupal cuticle formation with strong abdominal contraction and strong cuticular blanching. For both L4 and L5 abdomens, 50% effective doses were determined by plotting the mean score for all individuals vs. dose, then determining the dose which gives a score of 2.0 and 1.5 respectively. Intact L5D0 hornworms were either allowed to feed on treated commercial black cutworm diet or injected into a proleg and scored after 48 hours. The 50% effective dose was calculated by plotting percentage of the population bearing a prematurely apolysed head capsule vs. dose. For all experiments in this table at least 5 different doses with 10 animals per dose were used.
The dosage differences between the two compounds was even more dramatic in bioassays on intact (unligated) L5D0 hornworms. If the compounds are injected, Example No. 3 was 67-fold as effective as 20-hydroxyecdysone, while if administered orally, it was over 670-fold as potent.
Hemolymph concentrations of 14C-Example No. 3 were measured by feeding L5D0 hornworm larvae artificial diet containing the labelled compound. At specified intervals thereafter measured volumes of hemolymph were collected, extracted and analyzed by thin layer chromatography and high performance liquid chromatography. […] Blood levels then declined rapidly, but remained at a residual level of about 3 uM for at least 36 hours thereafter.

Some results are limits rather than exact numbers.

As to `CC(C)(O)CC[C@@H](O)[C@](C)(O)[C@H]1CC[C@@]2(O)C3=CC(=O)[C@@H]4C[C@@H](O)[C@@H](O)C[C@]4(C)[C@H]3CC[C@]12C` [20-hydroxyecdysone, reference compound], the ED50 (Manduca sexta) is more than 2000 mg/kg. Moreover, for the setting “feeding up to 2000 ppm, L5D0 hornworm larvae”, the head capsule slippage entry is “failed to elicit head capsule slippage”.
As to `CC(C)(C)N(NC(=O)c1ccccc1)C(=O)c1ccccc1` [Example No. 3, N'-t-butyl-N,N'-dibenzoylhydrazine], the ED95 (Manduca sexta, po, L5D0 hornworm larvae, in artificial diet, read-out: 95% effective dose for premature molting) was approximately 10 mg/kg. For the setting “Manduca sexta”, the ED50 is 3 mg/kg. In addition, under “intact L5D0 hornworms, administered orally”, the “fold as potent as 20-hydroxyecdysone” value was “over 670 fold”. The “time to clear signs of head capsule apolysis” value (newly ecdysed L5D0 larvae, after the initiation of feeding) is 24 h.

The values above are taken from patent publication EP0361645B1, “Organic hydrazine derivatives for pharmaceutical use” (ROHM AND HAAS COMPANY, priority 1988, dated 1990).
